One compound from ChEMBL document CHEMBL4130359, “Indazole-based ligands for estrogen-related receptor α as potential anti-diabetic agents” (Eur J Med Chem, 2017) can be followed below.

The target in data set [1] is Oxysterols receptor LXR-alpha (Homo sapiens, UniProt Q13133). Description: Agonist activity at recombinant GST-tagged human LXRalpha LBD assessed as fluorescein-labeled coactivator peptide recruitment preincubated with enzyme followed by coactivator addition by LanthaScreen TR-FRET assay. A general note: TR-FRET usually uses a lanthanide donor and a delayed reading to cut background.

The species named for the next data set is Cavia porcellus. Description: Inhibition of veratridine binding to Dunkin Hartley guinea pig atria sodium channel site 2 (unknown origin) at 10 uM relative to control.
Data set [2] in a line: Volume of distribution at steady state in CD-1 mouse at 5 mg/kg, iv by LC-MS analysis. Format: ADME, organism-based. Particulars: in vivo, read-out: Vdss.
The nature of data set [3]: Half life in Sprague-Dawley rat at 2 mg/kg, iv by LC-MS analysis. Format: ADME, organism-based. Conditions: in vivo.
Data set [4] in a line: AUC (0 to 24 hrs) in ob/ob mouse at 18 mg/kg administered via oral gavage by LC-MS analysis. Format: ADME, organism-based. Also noted: dose 18 mg/kg, time < 24 hr, route oral. Particulars: in vivo.
The subject of data set [5] is Rattus norvegicus. Description: Antidiabetic activity in Zucker rat sub-chronic fa/fa prediabetic model assessed as reduction in blood glucose AUC (0 to 120 min) at 10 mg/kg, po qd for 31 days measured on day 29 post dose by OGTT relative to control. The class given is functional. Also noted: scale not given: the % may be the effect or the level left.
Data set [6] is described as follows: Cmax in Zucker rat sub-chronic fa/fa prediabetic model at 1 mg/kg, po qd for 26 days measured on day 26 post last dose. The class given is ADME, organism-based. Conditions: in vivo. The arrangement: dose 1 mg/kg, route oral.
Data set [7] can be described thus: AUC (0 to 24 hrs) in Zucker rat sub-chronic fa/fa prediabetic model at 1 mg/kg, po qd measured on day 1 post dose. Format: ADME, organism-based. Also noted: time < 24 hr, dose 1 mg/kg, route oral. Particulars: in vivo.
For data set [8], the system named is Rattus norvegicus. The data set can be described thus: Toxicity in Zucker rat sub-chronic fa/fa prediabetic model assessed as change in body weight at 50 mg/kg, po qd for 29 days measured on day 1 to 29 during compound dosing (reference value: 140 +/- 7 g). Conditions: in vivo, 696 h. Format: organism-based.
The test system of data set [9] is Rattus norvegicus. Description: Toxicity in Zucker rat sub-chronic fa/fa prediabetic model assessed as serum ALT level at 1 mg/kg, po qd for 31 days measured on day 32 (reference value: 151 +/- 23 U/L). The class given is organism-based. Conditions: in vivo, 744 h.
Data set [10] can be described thus: Cmax in […] chronic ob/ob model at 50 mg/kg, po qd measured on day 1 post dose. Format: ADME, organism-based. The arrangement: dose 50 mg/kg, route oral. Particulars: in vivo.
A short description of data set [11]: AUC (0 to 24 hrs) in […] model at 50 mg/kg, po qd measured on day 1 post dose. Particulars: in vivo. The arrangement: dose 50 mg/kg, time < 24 hr, route oral. The class given is ADME, organism-based.
Data set [12] concerns Rattus norvegicus. Description: Toxicity in […] chronic ob/ob model assessed as change in body weight at 3 mg/kg, po qd for 28 days measured on day 1 to 28 during compound dosing (reference value: 9.9 +/- 1.27 g). The class given is organism-based. Particulars: in vivo, 672 h.
Data set [13] has as its system Rattus norvegicus. Description: Toxicity in […] chronic ob/ob model assessed as food intake at 50 mg/kg, po qd for 28 days measured on day 1 to 28 during compound dosing (reference value: 170.6 +/- 3 g). The class given is organism-based. Conditions: in vivo, 672 h.
The subject of data set [14] is Rattus norvegicus. Description: Toxicity in […] model assessed as liver weight at 10 mg/kg, po qd for 31 days measured on day 32 (reference value: 2.77 +/- 0.16 g). The class given is organism-based. Conditions: in vivo, 744 h.
Data set [15] concerns Rattus norvegicus. The data set can be described thus: Toxicity in […] chronic ob/ob model assessed as epididymal white adipose tissue weight at 3 mg/kg, po qd for 31 days measured on day 32 (reference value: 3.92 +/- 0.14 g). Format: organism-based. Conditions: in vivo, 744 h.
For data set [16], the system named is Rattus norvegicus. The data set can be described thus: Toxicity in […] model assessed as serum BUN level at 10 mg/kg, po qd for 31 days measured on day 32 (reference value: 28.3 +/- […]). The class given is organism-based. Particulars: in vivo, 744 h.
Data set [17] has as its system Rattus norvegicus. The data set can be described thus: Effect on UGP2 gene expression in epididymal white adipose tissue of Zucker rat sub-chronic fa/fa prediabetic model at 10 mg/kg, po qd for 15 days by microarray analysis relative to control. Format: functional.
Data set [18] has as its system Rattus norvegicus. Description: Effect on GNPAT gene expression in epididymal white adipose tissue of Zucker rat sub-chronic fa/fa prediabetic model at 10 mg/kg, po qd for 15 days by microarray analysis relative to control. The class given is functional.
Data set [19] deals with Rattus norvegicus. Description: Effect on ABCG1 gene expression in epididymal white adipose tissue of Zucker rat sub-chronic fa/fa prediabetic model at 10 mg/kg, po qd for 15 days by microarray analysis relative to control. Format: functional.
Data set [20] deals with Rattus norvegicus. The data set can be described thus: Effect on NR1H3 gene expression in epididymal white adipose tissue of Zucker rat sub-chronic fa/fa prediabetic model at 10 mg/kg, po qd for 15 days by microarray analysis relative to control. The class given is functional.

Chain of Oxysterols receptor LXR-alpha (Q13133 whole entry, the tested form may be a part): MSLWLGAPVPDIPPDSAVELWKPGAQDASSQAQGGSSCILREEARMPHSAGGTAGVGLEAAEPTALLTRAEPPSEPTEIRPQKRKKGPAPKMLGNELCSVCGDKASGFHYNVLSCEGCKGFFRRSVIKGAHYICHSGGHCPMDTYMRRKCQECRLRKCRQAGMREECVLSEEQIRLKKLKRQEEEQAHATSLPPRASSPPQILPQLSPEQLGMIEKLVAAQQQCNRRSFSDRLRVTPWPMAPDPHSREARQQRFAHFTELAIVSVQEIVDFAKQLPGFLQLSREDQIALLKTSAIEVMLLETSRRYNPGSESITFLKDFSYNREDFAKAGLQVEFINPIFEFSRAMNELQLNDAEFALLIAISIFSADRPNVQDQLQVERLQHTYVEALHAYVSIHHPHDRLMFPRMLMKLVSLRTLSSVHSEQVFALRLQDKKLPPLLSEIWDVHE

As a reminder, the EC50 is the concentration that produces a half-maximal response. For orientation: inhibition means the share of the control response that was lost under treatment. As a reminder, the half-life is the time in which the quantity being followed falls by half. The term AUC(0-t) denotes the area under the concentration-time curve up to a stated or last time point. The Cmax is the highest concentration seen after dosing. On to `CN1CC[C@@H](N2C(=O)S/C(=C\c3ccc4c(cnn4Cc4ccc(Cl)cc4C(F)(F)F)c3)C2=O)[C@H](F)C1`, for which the 50% effective concentration (EC50) in data set [1] was over 10 µM. Besides, the inhibition in the data set listed under Cavia porcellus is 69%. The Vd in data set [2] was determined as 6.89 L/kg. The half-life in data set [3] was 6 h. For the same compound, the AUC(0-t) at 24 h came out at 6230 ng·h/mL in [4], 1760 ng·h/mL in [7] and 16900 ng·h/mL in [11]. Moreover, the Activity amounted to 55% with Rattus norvegicus [5]; 157 g in the data set with Rattus norvegicus [8]; 159 U/L in the data set with Rattus norvegicus [9]; 6.3 g in the data set with Rattus norvegicus [12]; 152.4 g in the data set with Rattus norvegicus [13]; 2.67 g in the data set on Rattus norvegicus [14]. The Activity worked out at 3.44 g in the data set with Rattus norvegicus [15] and 28.7 mg/dL in the data set on Rattus norvegicus [16]. Besides, the Cmax in data set [6] worked out at 316 ng/mL; in data set [10], 2680 ng/mL. The “fold change (FC)” value was 1.803 in the data set on Rattus norvegicus [17], 1.212 in the data set with Rattus norvegicus [18], 1.488 with Rattus norvegicus [19] and 1.389 with Rattus norvegicus [20].
